Our source for the Kd and IC50 values is patent US20240279221A1, “HETEROCYCLIC COMPOUNDS AND METHODS OF USE” (Schrödinger, Inc., priority 2021, published 2024).

A value given as a limit tells only on which side of the number the result lay.

In one assay the target is human SOS1 (Homo sapiens (Human), UniProt Q07889). Briefly: Surface Plasmon Resonance (SPR) SOS1 Binding Assay. The settings on record: biotinylated SOS1 (res. 564-1049), 25° C., kinetic or steady state fit, read-out: KD for hSOS1. As to the method:
Binding to SOS1 was measured using a SPR assay with purified recombinant human SOS1 substrate (res. 564-1049 with N-terminal Avi tag; purified and biotinylated based on Hillig, et al., Proc Natl Acad Sci USA (2019); 116(7):2551-2560). SPR measurements were performed on a Biacore 8K SPR instrument (GE Healthcare, Sweden). Assays were performed at 25° C. using Series S SA sensor chips pre-coated with streptavidin (GE Healthcare, Cat. BR100531). Biotinylated SOS1 diluted in sample buffer (20 mM Tris HCl, 150 mM NaCl, 1 mM DTT, 0.05% TWEEN 20, 1 mM MgCl2, pH 8.0) was captured to one flow cell of the chip to about 3,000 resonance units (RU) using sample buffer supplemented with 5% DMSO as a running buffer. Serial dilutions of the assayed compounds in the running buffer at 100, 50 or 0.5 μM were injected for 60 s at a flow rate of 30 μL/min and association phases were recorded. Dissociation of the samples was monitored for 600 s. Data processing was performed using Biacore Insight Software (Biacore, GE Healthcare). Sensorgrams recorded on a SA flow cell without captured protein were subtracted from sensorgrams recorded on the SOS1 surface. Blank injections of running buffer were used for double referencing and solvent correction was applied to all sample sensorgrams to correct for buffer mismatches. KDs were estimated using a kinetic or steady state, where applicable, fitting model describing a reversible equilibrium with 1:1 binding between SOS1 and the compound.

The target of assay [1] is SOS1:KRAS (G12C) interaction (Homo sapiens (Human), UniProt Q07889). Kind of assay: SOS1-KRas(G12C) FRET Assay. Type of assay: binding. The settings on record: 0.5 nM His10-SOS1 (res. 564-1049), 2.5 nM GST-KRAS (res. 1-169, G12C); read-out: SOS-KRas(G12C) FRET IC50. The essentials:
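TR-FRET measured binding of His10-SOS1 (res. 564-1049, 0.5 nM) to GST-KRAS G12C (res. 1-169, 2.5 nM), with anti-GST-Eu(K) and anti-6His-XL665 labels, in PBS with BSA, MgCl2, KF and DTT; 0.5% DMSO. Compound and SOS1 were pre-incubated 15 min at 25° C, KRAS was added, and the plate was read at 665/615 nm after 2 h at RT. IC50 and Hill slope came from non-linear regression.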

Sequence of human SOS1 (Q07889 564-1049): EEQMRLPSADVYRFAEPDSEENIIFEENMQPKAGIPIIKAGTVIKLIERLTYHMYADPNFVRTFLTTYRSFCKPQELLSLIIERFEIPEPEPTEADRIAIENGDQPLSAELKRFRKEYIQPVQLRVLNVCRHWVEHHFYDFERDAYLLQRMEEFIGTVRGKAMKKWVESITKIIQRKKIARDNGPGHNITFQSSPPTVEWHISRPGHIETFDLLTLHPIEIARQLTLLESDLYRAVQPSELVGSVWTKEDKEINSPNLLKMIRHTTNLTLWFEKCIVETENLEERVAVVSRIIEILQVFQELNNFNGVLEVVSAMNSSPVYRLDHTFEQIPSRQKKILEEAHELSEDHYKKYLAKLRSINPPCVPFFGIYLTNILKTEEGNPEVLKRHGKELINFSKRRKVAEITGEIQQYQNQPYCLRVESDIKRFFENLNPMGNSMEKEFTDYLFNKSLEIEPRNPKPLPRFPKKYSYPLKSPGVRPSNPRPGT
Sequence of SOS1:KRAS (G12C) interaction (Q07889 564-1049, stated change not applied): as the sequence (Q07889 564-1049) above

As a reminder, the Kd is the free concentration of one partner at which half of the binding sites on the other are occupied at equilibrium, for simple one-to-one binding. What is called IC50 is the concentration needed to halve the response being measured. Take `Cc1c([C@@H](C)Nc2nn(C)c(=O)c3c([C@@H]4CCCN4)c(=O)n(C4CC4)cc23)cccc1C(F)(F)F` (single isomer, unassigned) [Example 34]: the Kd on human SOS1 is 10 nM. For the same compound, the IC50 in assay [1] came out at 43.9 nM.

As to `C[C@@H](Nc1nn(C)c(=O)c2cc(=O)n([C@H]3CCCOC3)cc12)c1cccc(C(F)F)c1F` (single isomer, unassigned) [Example 38], the Kd on human SOS1 amounted to 43 nM. For the same compound, the IC50 in assay [1] stood at 211 nM.

Consider `C[C@@H](Nc1nn(C)c(=O)c2cc(=O)n([C@@H]3CCCOC3)cc12)c1cccc(C(F)F)c1F` (single isomer, unassigned) [Example 39], for which the Kd on human SOS1 was 43 nM. The IC50 in assay [1] came to 160 nM.

On to `C[C@H](Nc1nn(C)c(=O)c2cc(=O)n(C3CCOCC3)cc12)c1cccc(C(F)(F)[C@@H]2CCCO2)c1F` (single isomer, unassigned) [Example 44], for which the Kd at human SOS1 was over 5000 nM. For the same compound, the IC50 in assay [1] stood at 5810 nM.

Turning to `C[C@@H](Nc1nn(C)c(=O)c2cc(=O)n(C3CCOCC3)cc12)c1cccc(C(F)(F)[C@@H]2CCCO2)c1F` (single isomer, unassigned) [Example 45], the Kd at human SOS1 is 10 nM. For the same compound, the IC50 in assay [1] worked out at 23.4 nM.

Consider `C[C@@H](Nc1nn(C)c(=O)c2cc(=O)n([C@@]3(C)CCOC3)cc12)c1cccc(C(F)F)c1F` (single isomer, unassigned) [Example 52], for which the Kd at human SOS1 is 76 nM. In addition, in assay [1], the IC50 was found to be 272 nM.

`C[C@@H](Nc1nn(C)c(=O)c2cc(=O)n([C@]3(C)CCOC3)cc12)c1cccc(C(F)F)c1F` (single isomer, unassigned) [Example 53]: the Kd on human SOS1 turned out to be 7 nM. Also, the IC50 in assay [1] amounted to 30.3 nM.

In the case of `Cc1c([C@@H](C)Nc2nn(C)c(=O)c3cc(=O)n([C@@]4(C)CCOC4)cc23)cccc1C(F)(F)F` (single isomer, unassigned) [Example 54], the Kd on human SOS1 amounted to 125 nM. The IC50 in assay [1] is 285 nM.

`Cc1c([C@@H](C)Nc2nn(C)c(=O)c3cc(=O)n([C@]4(C)CCOC4)cc23)cccc1C(F)(F)F` (single isomer, unassigned) [Example 55]: the Kd on human SOS1 came to 14 nM. In assay [1], the IC50 is 32.2 nM.

On to `COc1c(=O)n([C@@H]2CCOC[C@@H]2F)cc2c(N[C@H](C)c3cccc(C(F)F)c3F)nn(C)c(=O)c12` (single isomer, unassigned) [Example 58], for which, at human SOS1, the Kd amounted to 15 nM. The IC50 in assay [1] was found to be 32.7 nM.

On to `COc1c(=O)n([C@H]2CCOC[C@H]2F)cc2c(N[C@H](C)c3cccc(C(F)F)c3F)nn(C)c(=O)c12` (single isomer, unassigned) [Example 59], for which, at human SOS1, the Kd was 441 nM. Further, the IC50 in assay [1] was 1040 nM.

Consider `COc1c(=O)n([C@H]2CCOC[C@@H]2F)cc2c(N[C@H](C)c3cccc(C(F)F)c3F)nn(C)c(=O)c12` (single isomer, unassigned) [Example 60], for which, at human SOS1, the dissociation constant (Kd) turned out to be 43 nM. Further, in assay [1], the IC50 was found to be 129 nM.

For `COc1c(=O)n([C@@H]2CCOC[C@H]2F)cc2c(N[C@H](C)c3cccc(C(F)F)c3F)nn(C)c(=O)c12` (single isomer, unassigned) [Example 61], the Kd on human SOS1 worked out at 10 nM. Further, in assay [1], the IC50 was 25.9 nM.

Turning to `C[C@@H](Nc1nn(C)c(=O)c2cc(=O)n([C@H]3CCOC(C)(C)C3)cc12)c1cccc(C(F)F)c1F` (single isomer, unassigned) [Example 83], the Kd at human SOS1 came out at 11 nM. Also, in assay [1], the IC50 turned out to be 48.7 nM.

Consider `C[C@@H](Nc1nn(C)c(=O)c2cc(=O)n([C@@H]3CCOC(C)(C)C3)cc12)c1cccc(C(F)F)c1F` (single isomer, unassigned) [Example 84], for which the Kd on human SOS1 stood at 28 nM. Moreover, the IC50 in assay [1] is 229 nM.

Turning to `Cc1c([C@@H](C)Nc2nn(C)c(=O)c3cc(=O)n(C4CC4)cc23)cccc1C(F)(F)F` [Example 2, (R)-6-cyclopropyl-2-methyl-4-((1-(2-methyl-3-(trifluoromethyl)phenyl)ethyl)amino)-2,6-dihydropyrido[3,4-d]pyridazine-1,7-dione], the Kd on human SOS1 turned out to be 57 nM. The IC50 in assay [1] was 328 nM.

`Cc1c([C@@H](C)Nc2nn(C)c(=O)c3c(Br)c(=O)n(C4CC4)cc23)cccc1C(F)(F)F` [Example 3, (R)-8-bromo-6-cyclopropyl-2-methyl-4-((1-(2-methyl-3-(trifluoromethyl)phenyl)ethyl)amino)-2,6-dihydropyrido[3,4-d]pyridazine-1,7-dione]: the Kd on human SOS1 is 63 nM. In addition, the IC50 in assay [1] was determined as 345 nM.

For `Cc1c([C@@H](C)Nc2nn(C)c(=O)c3cc(=O)n(C4CCOCC4)cc23)cccc1C(F)(F)F` [Example 4, (R)-2-methyl-4-((1-(2-methyl-3-(trifluoromethyl)phenyl)ethyl)amino)-6-(tetrahydro-2H-pyran-4-yl)-2,6-dihydropyrido[3,4-d]pyridazine-1,7-dione], on human SOS1, the Kd came out at 22 nM. The IC50 in assay [1] stood at 54.6 nM.

Turning to `C[C@@H](Nc1nn(C)c(=O)c2cc(=O)n(C3CCOCC3)cc12)c1cccc(C(F)(F)F)c1` [Example 5, (R)-2-methyl-6-(tetrahydro-2H-pyran-4-yl)-4-((1-(3-(trifluoromethyl)phenyl)ethyl)amino)-2,6-dihydropyrido[3,4-d]pyridazine-1,7-dione], the Kd on human SOS1 turned out to be 22 nM. In addition, the IC50 in assay [1] was found to be 96.4 nM.

As to `COc1c(=O)n(C2CC2)cc2c(N[C@H](C)c3cccc(C(F)(F)F)c3C)nn(C)c(=O)c12` [Example 6, (R)-6-cyclopropyl-8-methoxy-2-methyl-4-((1-(2-methyl-3-(trifluoromethyl)phenyl)ethyl)amino)-2,6-dihydropyrido[3,4-d]pyridazine-1,7-dione], the Kd at human SOS1 stood at 44 nM. Moreover, the IC50 in assay [1] worked out at 161 nM.

Turning to `Cc1c([C@@H](C)Nc2nn(C)c(=O)c3c(C)c(=O)n(C4CC4)cc23)cccc1C(F)(F)F` [Example 7, (R)-6-cyclopropyl-2,8-dimethyl-4-((1-(2-methyl-3-(trifluoromethyl)phenyl)ethyl)amino)-2,6-dihydropyrido[3,4-d]pyridazine-1,7-dione], on human SOS1, the Kd stood at 259 nM. For the same compound, the IC50 in assay [1] came out at 1050 nM.

For `CC(=O)N1CCC(n2cc3c(N[C@H](C)c4cccc(C(F)(F)F)c4C)nn(C)c(=O)c3cc2=O)CC1` [Example 9, (R)-6-(1-acetylpiperidin-4-yl)-2-methyl-4-((1-(2-methyl-3-(trifluoromethyl)phenyl)ethyl)amino)-2,6-dihydropyrido[3,4-d]pyridazine-1,7-dione], the Kd on human SOS1 was 64 nM. Further, in assay [1], the IC50 came to 286 nM.

In the case of `Cc1c([C@@H](C)Nc2nn(C)c(=O)c3c(C#N)c(=O)n(C4CC4)cc23)cccc1C(F)(F)F` [Example 10, (R)-6-cyclopropyl-2-methyl-4-((1-(2-methyl-3-(trifluoromethyl)phenyl)ethyl)amino)-1,7-dioxo-1,2,6,7-tetrahydropyrido[3,4-d]pyridazine-8-carbonitrile], on human SOS1, the Kd came out at 136 nM. Also, the IC50 in assay [1] is 2250 nM.

On to `Cc1c([C@@H](C)Nc2nn(C)c(=O)c3c(Cl)c(=O)n(C4CC4)cc23)cccc1C(F)(F)F` [Example 11, (R)-8-chloro-6-cyclopropyl-2-methyl-4-((1-(2-methyl-3-(trifluoromethyl)phenyl)ethyl)amino)-2,6-dihydropyrido[3,4-d]pyridazine-1,7-dione], for which, at human SOS1, the Kd was found to be 95 nM. Besides, the IC50 in assay [1] stood at 592 nM.

`Cc1c([C@@H](C)Nc2nn(C)c(=O)c3c(N)c(=O)n(C4CC4)cc23)cccc1C(F)(F)F` [Example 12, (R)-8-amino-6-cyclopropyl-2-methyl-4-((1-(2-methyl-3-(trifluoromethyl)phenyl)ethyl)amino)-2,6-dihydropyrido[3,4-d]pyridazine-1,7-dione]: on human SOS1, the Kd turned out to be 290 nM. Further, the IC50 in assay [1] came to 1330 nM.

On to `Cc1c([C@@H](C)Nc2nn(C)c(=O)c3cc(=O)n([C@H]4C[C@H](O)C4)cc23)cccc1C(F)(F)F` [Example 13, 6-((1r,3r)-3-hydroxycyclobutyl)-2-methyl-4-(((R)-1-(2-methyl-3-(trifluoromethyl)phenyl)ethyl)amino)-2,6-dihydropyrido[3,4-d]pyridazine-1,7-dione], for which the Kd at human SOS1 came to 25 nM. Also, in assay [1], the IC50 came to 99.6 nM.

In the case of `Cc1c([C@@H](C)Nc2nn(C)c(=O)c3cc(=O)n([C@H]4C[C@@H](O)C4)cc23)cccc1C(F)(F)F` [Example 14, 6-((1s,3s)-3-hydroxycyclobutyl)-2-methyl-4-(((R)-1-(2-methyl-3-(trifluoromethyl)phenyl)ethyl)amino)-2,6-dihydropyrido[3,4-d]pyridazine-1,7-dione], the Kd at human SOS1 worked out at 87 nM. For the same compound, the IC50 in assay [1] stood at 537 nM.
